Measurements reported in US5047397A, “Linear analogs of atrial natriuretic peptides” (California Biotechnology Inc., priority 1988, dated 1991).
Entries after “also recorded” stand apart in the source; their conditions may differ. Where a SMILES comes first, the peptide text is derived from it. Bridges are numbered along the chain shown (N, C = ends). Where no end group is shown, it is not given here.

How the values were obtained:
[1] = molecular target: T1, specific ANP receptor sites on BASM or BAE cells (Bos taurus, UniProt P10730); experiment: Competitive displacement receptor binding of (125I)-rANP(126-150) on cultured cells; design: species or system bovine; conditions: for Ki: Table 2A, unit not given, in nM; for Ki(app): concentration of unlabeled peptide displacing 50% of maximal binding of 0.5 nM (125I)-rANP(126-150), BASM or BAE cells
T1 construct: specific receptor sites on BASM or BAE cells; endogenous in cells; host or cells: cultured BASM and BAE cells
T1 sequence (P10730 42-537): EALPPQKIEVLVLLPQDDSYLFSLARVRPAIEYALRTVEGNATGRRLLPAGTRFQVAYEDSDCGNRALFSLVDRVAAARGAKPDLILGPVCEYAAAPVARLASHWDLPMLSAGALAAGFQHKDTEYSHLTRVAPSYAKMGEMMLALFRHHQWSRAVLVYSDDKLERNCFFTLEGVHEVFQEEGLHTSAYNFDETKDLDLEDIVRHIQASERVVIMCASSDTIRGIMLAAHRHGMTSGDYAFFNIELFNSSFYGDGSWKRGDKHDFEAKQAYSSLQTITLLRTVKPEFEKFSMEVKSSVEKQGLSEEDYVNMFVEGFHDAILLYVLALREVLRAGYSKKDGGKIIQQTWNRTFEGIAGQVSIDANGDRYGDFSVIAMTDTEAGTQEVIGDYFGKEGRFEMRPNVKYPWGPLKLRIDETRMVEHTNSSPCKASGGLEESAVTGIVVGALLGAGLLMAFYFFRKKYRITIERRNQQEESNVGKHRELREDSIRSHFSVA
From the text: Analogous "competitive displacement" receptor binding assays are considered commonplace in the art for examining specific ligand-receptor interactions.
Assuming these ANP analogs act at one or more ANP receptor sites, then increased receptor affinity should reflect increased biological potency.

[2] = system: anesthetized rats; experiment: Diuresis in anesthetized rats; assay type: in vivo, rat; conditions: for urine flow rate (urine volume), diuretic response: infused at 5 mcg/min via femoral vein, versus baseline, FIG. 3; for in vivo diuretic/natriuretic activity in rats, in words: dose not stated
Procedure: In one set of examples, cannulae were placed in the left and right ureters and femoral vein of anesthetized rats and urine was collected from the ureters. Analog peptides were administered via the femoral vein. Prior to infusing the analog peptides, saline was infused for 30 minutes, urine was collected for 6 five-minute baseline periods and urine volume was determined gravimetrically. Following these baseline collection periods, various analog peptides were infused for 30 or 60 minutes and urine volume was measured in five-minute periods during infusion and for 60 minutes following infusion (at which time rats were returned to saline). Data was examined by averaging urine flow rates for six five-minute baseline control periods immediately preceding infusion, and comparing values during and after administration of peptides with the "baseline" control values. Responses to peptides are thus evaluated and plotted as the percent of baseline control responses. Specific examples are shown in FIGS. 3A-H. The error bars at the beginning of the graphs represent baseline values +standard deviations. Responses to peptides that are substantially above baseline ±SD can thus be interpreted as being statistically significant increases.

[3] = system: anesthetized rats; experiment: Blood pressure responses in anesthetized rats; assay type: in vivo, rat; conditions: infusion 733 p mol/kg/min
[4] = system: isolated perfused rat kidney; experiment: Natriuresis and diuresis in the isolated perfused rat kidney; conditions: for FENa (fractional sodium excretion) / FF (filtration fraction) / GFR (glomerular filtration rate) / RVR (renal vascular resistance) / UNa V (urinary sodium excretion rate) / V (urine flow rate): N=4
From the text: The results are in Table 2C.

[5] = system: cortical-associated receptor sites of the kidney; experiment: Competition for specific (125I)-rANP(123-150) binding in the kidney; design: species or system rat; conditions: competitor 10^-7 M, tracer 4 × 10^-12 M, n=3; for RATIO OF BOUND/FREE (125I)-rANP(123-150), Whole Kidney: tracer alone 122 ± 46; for RATIO OF BOUND/FREE (125I)-rANP(123-150), Outer Cortex: tracer alone 176 ± 23
[6] = system: pentobarbital-anesthetized dogs; experiment: Diuresis and natriuresis in anesthetized dogs; assay type: in vivo, dog
Procedure: In these examples, cannulae were placed in the left and right ureters and femoral vein of anesthetized dogs and urine was collected from the ureters. Analog peptides were administered via the femoral vein. Prior to infusing analog peptides, saline was infused for 30 minutes and urine was then collected for three ten-minute collection periods. Urine volume was determined gravimetrically and urine sodium was determined photometrically.
Following these three baseline collection periods, the selected analog peptides were infused for 60 minutes and urinary flow was measured for an additional 60 minutes following infusion. During infusion (60 minutes) and recovery (60 minutes), ten-minute collection periods were obtained. Control animals which received only saline were studied in parallel.
Data were examined by comparing urine flow rates for dogs infused with peptides AP101 (3 mcg/kg/min), AP306 (3 mcg/kg/min), AP324 (3 mcg/kg/min),or AP314 (1 mcg/kg/min) against control animals infused with saline.

[7] = [C] period of section D: AP57 10^-7 M present, before rANP(123-150)
[8] = rANP(123-150) 10^-8 M in presence of AP57 10^-7 M
[9] = rANP(123-150) 10^-8 M, mean ± SE
[10] = rANP(123-150) 10^-9 M in presence of AP57 10^-7 M
[11] = rANP(123-150) 10^-9 M, mean ± SE
[12] = rANP(123-150) 10^-10 M in presence of AP57 10^-7 M
[13] = rANP(123-150) 10^-10 M, mean ± SE
[14] = rANP(123-150) 10^-11 M in presence of AP57 10^-7 M
[15] = rANP(123-150) 10^-11 M, mean ± SE

## CC[C@H](C)[C@@H]1NC(=O)[C@H](CCCNC(=N)N)NC(=O)[C@H](CC(=O)O)NC(=O)[C@H]([C@@H](C)CC)NC(=O)[C@H](CCCNC(=N)N)NC(=O)CNC(=O)CNC(=O)[C@H](Cc2ccccc2)NC(=O)[C@@H](NC(=O)[C@H](CO)NC(=O)[C@H](CO)NC(=O)[C@@H](N)CCCNC(=N)N)CSSC[C@@H](C(=O)N[C@@H](CC(N)=O)C(=O)N[C@@H](CO)C(=O)N[C@@H](Cc2ccccc2)C(=O)N[C@@H](CCCNC(=N)N)C(=O)N[C@@H](Cc2ccc(O)cc2)C(=O)O)NC(=O)[C@H](C)NC(=O)CNC1=O [AP20, R--S--S--C--F--G--G--R--I--D--R--I--G--A--C--N--S--F--R--Y] (H-RSSCFGGRIDRIGACNSFRY-OH; disulfide 4-15)
[1]
  Ki: 7.50
[2]
  urine flow rate (urine volume), diuretic response: significantly increased
[3]
  Blood Pressure: -34 ± 3

## CC[C@H](C)[C@@H]1NC(=O)[C@H](CCCNC(=N)N)NC(=O)[C@H](CC(=O)O)NC(=O)[C@H]([C@@H](C)CC)NC(=O)[C@@H](NC(=O)[C@H](CO)NC(=O)[C@H](CO)NC(=O)[C@@H](N)CCCNC(=N)N)CSSC[C@@H](C(=O)N[C@@H](CC(N)=O)C(=O)N[C@@H](CO)C(=O)N[C@@H](Cc2ccccc2)C(=O)N[C@@H](CCCNC(=N)N)C(=O)N[C@@H](Cc2ccc(O)cc2)C(=O)O)NC(=O)CNC(=O)[C@H](CC(C)C)NC(=O)CNC(=O)[C@H](CO)NC(=O)[C@H](CCC(N)=O)NC(=O)[C@H](C)NC(=O)CNC1=O [AP54, R--S--S--C--I--D--R--I--G--A--Q--S--G--L--G--C--N--S--F--R--Y] (H-RSSCIDRIGAQSGLGCNSFRY-OH; disulfide 4-16)
[1]
  receptor binding / activity as judged by Ki, in words: does not bind to the receptor
  Ki(app): > 200 nM
[2]
  in vivo diuretic/natriuretic activity in rats, in words: appears inactive in vivo

## CC[C@H](C)[C@@H]1NC(=O)[C@H](CCCNC(=N)N)NC(=O)[C@H](CC(=O)O)NC(=O)[C@H]([C@@H](C)CC)NC(=O)[C@H](CCCNC(=N)N)NC(=O)CNC(=O)CNC(=O)[C@H](Cc2ccccc2)NC(=O)[C@@H](NC(=O)[C@H](CO)NC(=O)[C@H](CO)NC(=O)[C@@H](N)CCCNC(=N)N)CSSC[C@@H](C(N)=O)NC(=O)[C@H](C)NC(=O)CNC1=O [AP57, R-S-S-C-F-G-G-R-I-D-R-I-G-A-C-NH2] (H-RSSCFGGRIDRIGAC-NH2; disulfide 4-15)
[1]
  Ki: 8.2
[2]
  in vivo diuretic/natriuretic activity in rats, in words: natriuretic and diuretic activities
[4]; 10^-7 M
  natriuretic/diuretic activity in the isolated perfused rat kidney, in words: not active
[4]; AP57 10^-7 M alone, mean ± SE
  FENa (fractional sodium excretion): 0.24 ± 0.08%
  FF (filtration fraction): 1.37 ± 0.22%
  GFR (glomerular filtration rate): 0.55 ± 0.07 mL/min
  RVR (renal vascular resistance): 2.27 ± 0.17 mmHg/ml/min
  UNa V (urinary sodium excretion rate): 0.17 ± 0.04 uEq/min
  V (urine flow rate): 13.8 ± 2.0 µL/min
[4]; [7]
  FENa (fractional sodium excretion): 0.18 ± 0.04%
  FF (filtration fraction): 1.57 ± 0.27%
  GFR (glomerular filtration rate): 0.65 ± 0.06 mL/min
  RVR (renal vascular resistance): 2.21 ± 0.21 mmHg/ml/min
  UNa V (urinary sodium excretion rate): 0.17 ± 0.05 uEq/min
  V (urine flow rate): 16.3 ± 2.0 µL/min
[4]; pretreatment of the isolated kidney with 10^-7 M AP57
  modulation of renal responses to rANP(123-150), in words: increased the potency of rANP(123-150)
[5]
  RATIO OF BOUND/FREE (125I)-rANP(123-150), Whole Kidney: 1.27 ± 0.32
  RATIO OF BOUND/FREE (125I)-rANP(123-150), Outer Cortex: 1.68 ± 0.44

## AFGGRIDRIGA-NH2 [AP101, A--F--G--G--R--I--D--R--I--G--A--NH2]
[1]
  Ki(app): 2.63 nM
[1]; increasing concentrations of unlabeled peptide, BASM cells
  prevention of (125I)-rANP(126-150) binding to BASM cell-associated receptors (FIG. 2): effectively prevent
[2]
  urine flow rate (urine volume), diuretic response: induce diuresis; also recorded: significantly increased
[6]; 3 mcg/kg/min infused 60 min, *P<0.05, control 0.61
  Peak Urine Flow Rate V: 1.77 mL/min
[6]; 3 mcg/kg/minute infusion
  urine flow rate and urinary sodium excretion (diuresis, natriuresis), in words: cause diuresis; also recorded: significantly increased

## rANP(123-150): sequence of ANP(126-150) which includes 3 additional upstream amino acids of the naturally occurring peptide (SLRRSSCFGGRIDRIGAQSGLGCNSFRY; not fully specified; ends and bridges not checked; UniProt P01161 123-150, looked up, fragment)
[4]; [8]
  FENa (fractional sodium excretion): 4.77 ± 1.22%
  FF (filtration fraction): 2.30 ± 0.47%
  GFR (glomerular filtration rate): 0.84 ± 0.13 mL/min
  RVR (renal vascular resistance): 2.63 ± 0.33 mmHg/ml/min
  UNa V (urinary sodium excretion rate): 6.47 ± 2.29 uEq/min
  V (urine flow rate): 132 ± 33 µL/min
[4]; [9]
  FENa (fractional sodium excretion): 4.12 ± 0.94%
  FF (filtration fraction): 2.23 ± 0.44%
  GFR (glomerular filtration rate): 0.80 ± 0.08 mL/min
  RVR (renal vascular resistance): 2.66 ± 0.32 mmHg/ml/min
  UNa V (urinary sodium excretion rate): 4.78 ± 1.15 uEq/min
  V (urine flow rate): 96.6 ± 24.0 µL/min
[4]; [10]
  FENa (fractional sodium excretion): 4.08 ± 0.72%
  FF (filtration fraction): 2.81 ± 0.40%
  GFR (glomerular filtration rate): 0.99 ± 0.07 mL/min
  RVR (renal vascular resistance): 2.79 ± 0.34 mmHg/ml/min
  UNa V (urinary sodium excretion rate): 6.03 ± 1.37 uEq/min
  V (urine flow rate): 139 ± 14 µL/min
[4]; [11]
  FENa (fractional sodium excretion): 2.78 ± 0.89%
  FF (filtration fraction): 2.30 ± 0.41%
  GFR (glomerular filtration rate): 0.82 ± 0.07 mL/min
  RVR (renal vascular resistance): 2.64 ± 0.35 mmHg/ml/min
  UNa V (urinary sodium excretion rate): 3.22 ± 0.92 uEq/min
  V (urine flow rate): 74.0 ± 14.8 µL/min
[4]; [12]
  FENa (fractional sodium excretion): 1.33 ± 0.20%
  FF (filtration fraction): 2.65 ± 0.20%
  GFR (glomerular filtration rate): 0.93 ± 0.04 mL/min
  RVR (renal vascular resistance): 2.80 ± 0.31 mmHg/ml/min
  UNa V (urinary sodium excretion rate): 1.76 ± 0.25 uEq/min
  V (urine flow rate): 70.6 ± 4.2 µL/min
[4]; [13]
  FENa (fractional sodium excretion): 1.21 ± 0.44%
  FF (filtration fraction): 1.76 ± 0.29%
  GFR (glomerular filtration rate): 0.66 ± 0.07 mL/min
  RVR (renal vascular resistance): 2.51 ± 0.26 mmHg/ml/min
  UNa V (urinary sodium excretion rate): 1.13 ± 0.43 uEq/min
  V (urine flow rate): 35.5 ± 5.7 µL/min
[4]; [14]
  FENa (fractional sodium excretion): 0.41 ± 0.11%
  FF (filtration fraction): 2.04 ± 0.15%
  GFR (glomerular filtration rate): 0.80 ± 0.08 mL/min
  RVR (renal vascular resistance): 2.50 ± 0.15 mmHg/ml/min
  UNa V (urinary sodium excretion rate): 0.45 ± 0.10 uEq/min
  V (urine flow rate): 31.0 ± 3.7 µL/min
[4]; [15]
  FENa (fractional sodium excretion): 0.72 ± 0.19%
  FF (filtration fraction): 1.33 ± 0.20%
  GFR (glomerular filtration rate): 0.53 ± 0.04 mL/min
  RVR (renal vascular resistance): 2.36 ± 0.20 mmHg/ml/min
  UNa V (urinary sodium excretion rate): 0.53 ± 0.14 uEq/min
  V (urine flow rate): 21.8 ± 1.7 µL/min
[5]
  RATIO OF BOUND/FREE (125I)-rANP(123-150), Whole Kidney: 0.63 ± 0.27
  RATIO OF BOUND/FREE (125I)-rANP(123-150), Outer Cortex: 0.77 ± 0.30
